Measured values taken from patent US20260158149A1, “GLYCOSYLATED PRODRUGS” (UNIVERSITEIT LEIDEN, priority 2021, published 2026).
Entries after “also recorded” stand apart in the source; their conditions may differ.

Tests used:
[1] = tested on: il1b, il6, mmp9, mmp13, il8 mRNA; test: qPCR of pro-inflammatory genes after tail wounding; type: in vivo, Zebrafish (Danio rerio)
Description: (§1) For the tail fin amputation experiments, 3 days post fertilization (dpf) larvae from the Tg(mpx:GFP^i114/mpeg1:mCherry^umsF001) line were anesthetized in 0.02% buffered aminobenzoic acid ethyl ester (tricaine) in egg water and placed on a 2% agarose-coated petri dish. The tails were partially amputated with a 1 mm sapphire blade (World Precision Instruments) under a Leica M165C stereomicroscope (Leica Microsystems, Wetzlar, Germany). Chemical treatment (or 0.1% DMSO as vehicle treatment) was started at 2 h before the amputation (pretreatment) and was continued for 4 h after the tail fin amputation (20 larvae per group, unless indicated otherwise), at which time point the larvae were fixed in 4% paraformaldehyde (PFA) overnight at 4° C. and stored at 4° C. until further examination. In some experiments, a 24 h treatment with miglustat, ME656 or MZ31 was started at 2 dpf, and these treatments were continued during the pretreatment and treatment with the other chemicals. For imaging of larvae from the Tg(mpx:GFP^i114/mpeg1:mCherry^umsF001) line, a LeicaMZ16FA fluorescence stereomicroscope with LAS 3.7 software was used. Neutrophils were detected by GFP fluorescence and macrophages by mCherry fluorescence. The neutrophil numbers were determined by blinded manual counting in a pre-determined area. When larvae from gba2^−/− or gr^s357mutant lines were used, neutrophil labeling was performed with the TSA fluorescein detection kit (PerkinElmer) for specific staining of Myeloperoxidase (Mpx)-positive cells, following the manufacturer's instructions.
(§2) For experiments in zebrafish, gene expression was measured using 3 dpf embryos. Groups of 15 larvae were collected in TRIzol reagent (Invitrogen) and mRNA was isolated using the miRNeasy mini kit (Qiagen), according to the manufacturer's instructions. For experiments in HeLa cells, samples were collected from a single well from 6 well plates (80% confluent) in TRIzol reagent and mRNA was isolated using the RNeasy mini kit. Zebrafish and cells samples were treated with DNAse utilizing the DNA-Free™ kit (Ambion). The cDNA synthesis was performed using iScript cDNA synthesis kit (Bio-Rad) using 1 μg of RNA per sample. For qPCR, 10 μM of forward and 10 μM of reverse primer, 12.5 μL of iQ SYBR Green Supermix (Bio-Rad), and 2 μL of cDNA were added to the qPCR reaction mixture. […] The qPCR reactions were performed on a MyiQ-single-color real-time PCR detection system (Bio-Rad) with initial denaturation for 3 min at 95° C. and 40 cycles of 15 s at 95.5° C., 15 s at 60° C., and 30 s at 72° C. Cycle threshold values (Ct values, i.e. the cycle numbers at which a threshold value of the fluorescence intensity was reached) were determined for each sample. The gene expression level for each sample was normalized using the expression of ppial (peptidylprolyl isomerase Ab (cyclophilin A)) for zebrafish samples, and 18S rRNA for human cells. The fold change per sample (compared to the respective control group) was calculated using the ΔΔCt method.

regenerated tail fin = test: Regeneration of the tail fin after wounding; type: in vivo, Zebrafish (Danio rerio); settings: 5 dpf larvae, wounded at 2 dpf; for tissue regeneration with MZ31: GBA2 inhibitor MZ31
Procedure: (§3) When the regeneration of the tail fins after wounding or the larval body length was used as a readout, chemical treatments of the embryos were started at 2 hours post fertilization (hpf) and continued until 5 dpf. During this period, solutions were refreshed daily. At 5 dpf, larvae were imaged using a LeicaMZ16FA fluorescence stereomicroscope supported by LAS 3.7 software, and the length of the larvae was measured using ImageJ software (15 larvae per treatment group). For the regeneration experiments, tail fins were amputated at 2 dpf and larvae were imaged at 5 dpf (15 larvae per treatment group). The newly grown tissue can be distinguished from the old tissue, enabling precise measurement of the size of the newly grown tissue using ImageJ software.

[2] = Whole-body cortisol measurement using ELISA; settings: for whole body cortisol level: 5 dpf larvae treated from 2 hpf, non-wounded; for whole body cortisol level under wounding conditions / whole body cortisol level under wounding conditions with MZ31: 5 dpf larvae, wounded at 2 dpf; for whole body cortisol level under wounding conditions with MZ31: GBA2 inhibitor MZ31
[3] = tested on: neutrophils migrated to the wounded area; test: Tail fin amputation assay: neutrophil migration to the wounded area; type: in vivo, Zebrafish (Danio rerio); settings: for reduction in neutrophil migration in the presence of MZ31: GBA2 inhibitor MZ31; for neutrophil migration in Gba2-deficient larvae: gba2-/- mutant line; for inhibition of neutrophil migration in Gr deficient larvae: gr mutant line (gr-/-); for reduction in neutrophil migration in the presence of miglustat: non-specific GBA inhibitor miglustat
Procedure: Zebrafish (Danio rerio) were maintained and handled according to the guidelines from the Zebrafish Model Organism Database (https://zfin.org/) and in compliance with the directives of the local animal welfare committee of Leiden University. To maintain circadian rhythmicity, adult fish were exposed to a 14 h light and 10 h dark cycle. Fertilization was performed by natural spawning at the beginning of the light period. Fertilized eggs were collected and raised at 28° C. in egg water (60 μg/ml Instant Ocean sea salts and 0.0025% methylene blue). The following zebrafish lines were used in this study: AB/TL wild type, the transgenic lines Tg(mpx:GFP^i114/mpeg1:mCherry^umsF001) (Bernut et al., (2014). Mycobacterium abscessus cording prevents phagocytosis and promotes abscess formation. Proc Natl Acad Sci USA 111, E943-952; Renshaw et al., (2006). A transgenic zebrafish model of neutrophilic inflammation. Blood 108, 3976-3978), and Tg(9xGCRE-HSV.UI123:EGFP)^ia20 (Benato et al., (2014). A living biosensor model to dynamically trace glucocorticoid transcriptional activity during development and adult life in zebrafish. Mol Cell Endocrinol 392, 60-72), and the mutant lines gba2^−/− (Lelieveld et al., (2019). Role of beta-glucosidase 2 in aberrant glycosphingolipid metabolism: model of glucocerebrosidase deficiency in zebrafish. J Lipid Res 60, 1851-1867) and gr^s357 (Ziv et al., (2013). An affective disorder in zebrafish with mutation of the glucocorticoid receptor. Mol Psychiatry 18, 681-691).
as §1

Gr = test: Transactivation activity of Gr in Tg(9xGCRE-HSV.UI23:EGFP) reporter line; type: in vivo, Zebrafish (Danio rerio); settings: 24 h treatment, 3 dpf larvae
Procedure: The Tg(9xGCRE-HSV.UI23:EGFP)^ia20 zebrafish reporter line expresses enhanced green fluorescent protein (EGFP) under the control of a promoter containing an array of nine GREs. To study the effect of chemical treatments on the transactivation activity of the Gr, 15 zebrafish embryos per group (2 dpf) were treated with the indicated compounds for 24 hours. The transactivation activity of Gr induced by the treatments was assessed using a LeicaMZ16FA fluorescence stereomicroscope supported by LAS 3.7 software. The integrated intensity of the EGFP signal in the larvae was determined using ImageJ software.

[4] = Whole-body glucose measurement in larvae; settings: 5 dpf larvae treated from 2 hpf, non-wounded
Procedure: Zebrafish embryos at 2 hpf received a chemical treatment, as indicated, with daily refreshment of the solutions, until 5 dpf. At 5 dpf, the larvae were collected in an Eppendorf tube and 100 μL of ice-cold glucose buffer was added to each sample. The larvae were homogenized using a BulletBlender® for 3 min at 8,000 rpm. The homogenates were then centrifuged at 4° C. for 8 min at 11000 rpm and the supernatant was stored at −20° C. Whole-body glucose concentrations were determined using a Glucose Colorimetric Assay kit (Cayman Chemical, USA), according to the manufacturer's instructions. In each experiment, three biological replicates were used for each treatment group, and the colorimetric assay was performed using technical duplicates.

Larval body length = type: in vivo, Zebrafish (Danio rerio); settings: 5 dpf, treatment from 2 hpf
Procedure: as §3

IL-6 = test: CAIA model: serum IL-6 by ELISA; type: in vivo, mouse
Procedure: All mice received 1.5 mg of a CAIA-cocktail (Chondrex) intravenously on day 1, followed by intraperitoneal (i.p.) injection of 50 μg LPS (Chondrex) on day 4. Mice were randomly divided into six groups. […] Scores were assigned blinded. […] The blood collection on day 14 was performed after 6 h fasting. On day 15, mice were sacrificed using carbon dioxide, and tissue samples were collected that were immediately frozen in liquid nitrogen. Applied humane endpoints were a total body weight loss of >20% in comparison to the day of LPS treatment or reaching an arthritis score of 45.
IL-6 concentrations were determined by ELISA in the serum collected at days 10 and 15, using the IL-6 mouse ELISA kit (Invitrogen), following the manufacturer's protocol. The insulin concentration was determined in serum collected at day 14, using the Ultra-sensitive mouse insulin ELISA kit (Crystal Chem), following the manufacturer's protocol. Corticosterone concentrations were determined in serum collected at day 15, using the Corticosterone HS (high sensitivity) enzyme immunoassay kit (Immunodiagnostic Systems), following the manufacturer's protocol. Expression levels of various GR target genes were determined by qPCR in the tissue samples (homogenized in TRIzol Reagent (ThermoFisher)) collected at day 15.

[5] = tested on: collagen antibody-induced arthritis (CAIA)
[6] = tested on: Gr target genes fkbp5, pck1 and nfkbiaa; test: qPCR of Gr target genes fkbp5, pck1, nfkbiaa; type: in vivo, Zebrafish (Danio rerio)
Procedure: as §2

[7] = Pdn 12.5 or 25 mg/kg i.p. daily from day 7

Row | SMILES | wounding-induced increase in expression of il1b, il6 and mmp9 [1] | tissue regeneration (length of regenerated tail fin) (regenerated tail fin) | tissue regeneration with MZ31 (regenerated tail fin) | whole body cortisol level [2] | whole body cortisol level under wounding conditions [2] | whole body cortisol level under wounding conditions with MZ31 [2] | reduction in neutrophil migration in the presence of MZ31 [3] | neutrophil migration in Gba2-deficient larvae [3] | inhibition of neutrophil migration in Gr deficient larvae [3] | reduction in neutrophil migration in the presence of miglustat [3] | transactivation activity of Gr (GFP signal in GRE:GFP reporter fish line) (Gr) | whole body glucose level [4] | larval length (Larval body length) | other results
1 | CC(C)=CCC[C@](C)(O[C@@H]1O[C@H](CO)[C@@H](O)[C@H](O)[C@H]1O)[C@H]1CC[C@]2(C)[C@@H]1[C@H](O)C[C@@H]1[C@@]3(C)CC[C@H](O[C@@H]4O[C@H](CO)[C@@H](O)[C@H](O)[C@H]4O)C(C)(C)[C@@H]3CC[C@]12C [F2] | strongly suppressed | neither did they affect; also recorded: minor effect | GBA2-dependent | neither did they affect the cortisol concentration | minor effect | GBA2-dependent | abolished | did not affect the neutrophil migration | the inhibition of neutrophil migration was abolished | abolished | did not cause an increase in the fluorescence intensity | did not show any effect on glucose | – | –
2 | C[C@@H]1C[C@H]2[C@@H]3CCC4=CC(=O)C=C[C@]4(C)[C@@]3(F)[C@@H](O)C[C@]2(C)[C@@]1(O)C(=O)CO [Dex, dexamethasone] | – | – | – | decreased the cortisol level; also recorded: significantly larger decrease | – | – | – | – | – | – | – | increased the glucose concentration | decreased | –
3 | CC(C)=CCC[C@](C)(O[C@@H]1O[C@H](CO[C@@H]2O[C@H](CO)[C@@H](O)[C@H](O)[C@H]2O)[C@@H](O)[C@H](O)[C@H]1O)[C@H]1CC[C@]2(C)[C@@H]1[C@H](O)C[C@@H]1[C@@]3(C)CC[C@H](O[C@@H]4O[C@H](CO)[C@@H](O)[C@H](O)[C@H]4O[C@@H]4O[C@H](CO)[C@@H](O)[C@H](O)[C@H]4O)C(C)(C)[C@@H]3CC[C@]12C [Rb1] | strongly suppressed | neither did they affect; also recorded: minor effect | GBA2-dependent | neither did they affect the cortisol concentration | minor effect | GBA2-dependent | abolished | did not affect the neutrophil migration | the inhibition of neutrophil migration was abolished | abolished | did not cause an increase in the fluorescence intensity | did not show any effect on glucose | – | –
4 | C[C@]12C=CC(=O)C=C1CC[C@@H]1[C@@H]2[C@@H](O)C[C@@]2(C)[C@H]1CC[C@]2(O)C(=O)CO [Pdn, prednisolone] | – | – | – | significantly larger decrease | – | – | – | – | – | – | – | – | – | expression of the pro-inflammatory genes il1b, il6 and il8 [1]: these effects were similar to those observed upon Pdn and GPdn treatment; migration of neutrophils towards the wounded area ([3]; wild type larvae, 4 h after tail wounding): inhibited the neutrophil migration; serum IL-6 level compared to the vehicle group (IL-6; day 10, all treatment groups): significant reduction of the IL-6 level; serum IL-6 level (IL-6; day 15, all groups except 12.5 mg/kg GbPdn): undetectable; arthritis score at maximal reduction [5, 7]: approximately 0; day of maximal reduction of arthritis score [5, 7]: 11 days; arthritis scores after treatment initiation ([5]; all dose groups, daily i.p. from day 7): decreased rapidly after treatment initiation
5 | CC(C)=CCCC(C)(O)[C@H]1CC[C@]2(C)[C@@H]1[C@H](O)C[C@@H]1[C@@]3(C)CC[C@H](O)C(C)(C)[C@@H]3CC[C@]12C (stereo in doubt) [PPD, Protopanaxadiol] | strongly suppressed | did decrease | – | did decrease the cortisol concentration | – | – | did not affect the action of PPD | – | the inhibition of neutrophil migration was abolished | did not affect the action of PPD | did not cause an increase in the fluorescence intensity | did not affect the glucose level | did decrease | expression of Gr target genes fkbp5, pck1 and nfkbiaa [6]: did not increase the expression
